Patent publication US9802899B2, “Heterocyclic compounds as pesticides” (BAYER CROPSCIENCE AG, priority 2012, dated 2017)

Assay: Determination of the log P values by HPLC (formic acid method)
Assay type: physicochemical
Conditions: reversed-phase HPLC column (C 18), reversed-phase column (C 18), acidic range (pH 3.4), 55° C.
Description: 1) Description of Method for Determination of the Log P Values (Formic Acid Method)
Eluents for determination in the acidic range (pH 3.4):
Eluent A: acetonitrile+1 ml of formic acid/liter. Eluent B: water+0.9 ml of formic acid/liter.
The lambda max values were determined in the maxima of the chromatographic signals using the UV spectra from 200 nm to 400 nm.

In order of rising chromatographic logP:
1. O=C(Nc1ccn(-c2nccnc2F)n1)c1ccccc1Cl [Compound I-1-174, 2-Chloro-N-[1-(3-fluoropyrazin-2-yl)-1H-pyrazol-3-yl]benzamide]  2.03
2. Nc1cc(F)c(-n2ccc(NC(=O)c3ccccc3C(F)(F)F)n2)c(F)c1 [Compound I-1-227, N-[1-(4-Amino-2,6-difluorophenyl)-1H-pyrazol-3-yl]-2-(trifluoromethyl)benzamide]  2.32
3. N#Cc1cc(F)c(-n2ccc(NC(=O)c3ccccc3C(F)(F)F)n2)c(F)c1 [Compound I-1-228, N-[1-(4-Cyano-2,6-difluorophenyl)-1H-pyrazol-3-yl]-2-(trifluoromethyl)benzamide]  2.66
4. O=C(Nc1ccn(-c2c(F)cc([N+](=O)[O-])cc2F)n1)c1ccccc1C(F)(F)F [Compound I-1-229, N-[1-(2,6-Difluoro-4-nitrophenyl)-1H-pyrazol-3-yl]-2-(trifluoromethyl)benzamide]  2.86
5. O=C(Nc1ccn(-c2c(F)cc(C(F)(F)F)cc2F)n1)c1ccccc1C(F)(F)F [Compound I-1-230, N-{1-[2,6-Difluoro-4-(trifluoromethyl)phenyl]-1H-pyrazol-3-yl}-2-(trifluoromethyl)benzamide]  3.39

Same assay, conditions: reversed-phase column (C 18), acidic range (pH 3.4), 55° C.

In order of falling “log P” value:
1. CCc1cc(NC(=O)c2ccccc2C(F)(F)F)nn1-c1ccc(F)cc1F [Compound I-1-201]  4.15
2. CCc1cc(NC(=O)c2ccccc2I)nn1-c1ccc(F)cc1F [Compound I-1-215]  4.15
3. O=C(Nc1ccn(-c2cc(F)c(F)cc2F)n1)c1ccccc1I [Compound I-1-196]  4.10
4. O=C(Nc1ccn(-c2cc(F)c(F)cc2F)n1)c1ccccc1C(F)(F)F [Compound I-1-191]  4.04
5. O=C(Nc1ccn(-c2cc(F)c(F)cc2F)n1)c1ccccc1Br [Compound I-1-194]  3.99
6. CCc1cc(NC(=O)c2ccccc2Cl)nn1-c1ccc(F)cc1F [Compound I-1-213]  3.99
7. O=C(Nc1ccn(-c2cc(F)c(F)cc2F)n1)c1ccccc1Cl [Compound I-1-195]  3.94
8. CCc1cc(NC(=O)c2c(F)cccc2F)nn1-c1ccc(F)cc1F [Compound I-1-207]  3.84
9. Cn1nc(C(F)(F)C(F)(F)F)c(C(F)(F)F)c1C(=O)Nc1ccn(-c2c(F)cccc2F)n1 [Compound I-1-237]  3.84
10. Cc1cc(NC(=O)c2ccccc2C(F)(F)F)nn1-c1ccc(F)cc1F [Compound I-1-202]  3.78
11. O=C(Nc1ccn(-c2cc(F)c(F)cc2F)n1)c1ccccc1C(F)(F)F [Compound I-1-193]  3.73
12. Cc1cc(NC(=O)c2ccccc2I)nn1-c1ccc(F)cc1F [Compound I-1-214]  3.73
13. Cc1cc(NC(=O)c2ccccc2Br)nn1-c1ccc(F)cc1F [Compound I-1-208]  3.63
14. CCc1cc(NC(=O)c2cccnc2C(F)(F)F)nn1-c1ccc(F)cc1F [Compound I-1-204]  3.58
15. Cc1cc(NC(=O)c2ccccc2Cl)nn1-c1ccc(F)cc1F [Compound I-1-212]  3.58
16. CCC(C)n1ncc(Cl)c1C(=O)Nc1ccn(-c2c(F)cccc2F)n1 (stereo not drawn) [Compound I-1-244]  3.58
17. O=C(Nc1ccn(-c2ccc(Cl)cc2Cl)n1)c1ccccc1C(F)(F)F [Compound I-1-197]  3.51
18. CC(C)N(C(=O)c1ccccc1C(F)(F)F)c1ccn(-c2c(F)cccc2F)n1 [Compound I-1-260]  3.50
19. CCC(C)n1ncc(I)c1C(=O)Nc1ccn(-c2c(F)cccc2F)n1 (stereo not drawn) [Compound I-1-245]  3.47
20. O=C(Nc1ccn(-c2ccc(Cl)cc2Cl)n1)c1ccccc1Br [Compound I-1-199]  3.44
21. C=CCN(C(=O)c1ccccc1C(F)(F)F)c1ccn(-c2c(F)cccc2F)n1 [Compound I-1-255]  3.44
22. O=C(Nc1ccn(-c2cc(F)c(F)cc2F)n1)c1cccnc1C(F)(F)F [Compound I-1-192]  3.42
23. Cc1cc(NC(=O)c2c(F)cccc2F)nn1-c1ccc(F)cc1F [Compound I-1-206]  3.42
24. O=C(Nc1ccn(-c2cccc(Cl)c2Cl)n1)c1ccccc1Br [Compound I-1-187]  3.41
25. O=C(Nc1ccn(-c2ccc(Cl)cc2Cl)n1)c1ccccc1Cl [Compound I-1-200]  3.40
26. O=C(Nc1ccn(-c2cccc(Cl)c2Cl)n1)c1ccccc1Cl [Compound I-1-188]  3.38
27. CCN(C(=O)c1ccccc1C(F)(F)F)c1ccn(-c2c(F)cccc2F)n1 [Compound I-1-254]  3.31
28. O=C(Nc1ccn(-c2ccc(Cl)cc2Cl)n1)c1ccccc1C(F)(F)F [Compound I-1-198]  3.25
29. O=C(Nc1ccn(-c2cc(F)ccc2F)n1)c1ccsc1I [Compound I-1-219]  3.25
30. O=C(Nc1ccn(-c2c(Cl)cccc2Cl)n1)c1cccnc1OC(F)(F)F [Compound I-1-226]  3.21
31. Cc1cc(NC(=O)c2cccnc2C(F)(F)F)nn1-c1ccc(F)cc1F [Compound I-1-203]  3.19
32. O=C(Nc1ccn(-c2cc(F)ccc2F)n1)c1occc1I [Compound I-1-222]  3.14
33. CN(C(=O)c1ccccc1C(F)(F)F)c1ccn(-c2c(F)cccc2F)n1 [Compound I-1-253]  3.08
34. Cc1c(F)cnc(F)c1-n1ccc(NC(=O)c2ccccc2C(F)(F)F)n1 [Compound I-1-217]  3.06
35. O=C(Nc1ccn(-c2cccc(F)c2F)n1)c1ccccc1Cl [Compound I-1-189]  3.01
36. O=C(Nc1ccn(-c2cc(F)ccc2F)n1)c1ncccc1Cl [Compound I-1-220]  3.00
37. Cn1nc(C(F)(F)F)c(C(=O)Nc2ccn(-c3c(F)cccc3F)n2)c1C(F)(F)F [Compound I-1-238]  2.99
38. O=C(Nc1ccn(-c2ccc(F)cc2F)n1)c1ccccc1Br [Compound I-1-209]  2.95
39. Cc1nn(C(F)F)c(C(=O)Nc2ccn(-c3c(F)cccc3F)n2)c1F [Compound I-1-231]  2.89
40. O=C(Nc1nn(-c2c(F)cccc2F)cc1I)c1ccccc1C(F)(F)F [Compound I-1-257]  2.86
41. O=C(Nc1ccn(-c2c(F)cccc2F)n1)c1cccnc1OC(F)(F)F [Compound I-1-250]  2.77
42. O=C(Nc1nn(-c2c(F)cccc2F)cc1Br)c1ccccc1C(F)(F)F [Compound I-1-252]  2.77
43. CCn1ncc(I)c1C(=O)Nc1ccn(-c2c(F)cccc2F)n1 [Compound I-1-235]  2.76
44. O=C(Nc1ccn(-c2c(F)cccc2F)n1)c1ccccc1OC(F)F [Compound I-1-247]  2.74
45. O=C(Nc1nn(-c2c(F)cccc2F)cc1Cl)c1ccccc1C(F)(F)F [Compound I-1-251]  2.73
46. O=C(Nc1ccn(-c2cc(F)cnc2F)n1)c1ccccc1C(F)(F)F [Compound I-1-224]  2.72
47. O=C(Nc1ccn(-c2ncc(F)cc2Cl)n1)c1ccccc1C(F)(F)F [Compound I-1-183]  2.64
48. O=C(Nc1ccn(-c2cc(F)cnc2F)n1)c1ccccc1Cl [Compound I-1-225]  2.59
49. Cn1cc(C(=O)Nc2ccn(-c3c(F)cccc3F)n2)c(C(F)(F)F)c1 [Compound I-1-240]  2.52
50. Cn1ccc([N+](=O)[O-])c1C(=O)Nc1ccn(-c2c(F)cccc2F)n1 [Compound I-1-239]  2.50
51. CSc1ncccc1C(=O)Nc1ccn(-c2c(F)cccc2F)n1 [Compound I-1-249]  2.38
52. O=C(Nc1ccn(-c2c(F)cccc2F)n1)c1cccnc1CC(F)(F)F [Compound I-1-246]  2.35
53. O=C(Nc1ccn(-c2cc(F)ccc2F)n1)c1cccnc1Cl [Compound I-1-218]  2.28
54. Cc1nn(C)c(C(=O)Nc2ccn(-c3c(F)cccc3F)n2)c1[N+](=O)[O-] [Compound I-1-233]  2.23
55. O=C(Nc1ccn(-c2nccnc2F)n1)c1ccccc1I [Compound I-1-176]  2.18
56. Cc1nn(C)c(C)c1C(=O)Nc1ccn(-c2ccccc2C(F)(F)F)n1 [Compound I-1-185]  2.16
57. CS(=O)(=O)c1ccccc1-n1ccc(NC(=O)c2ccccc2C(F)(F)F)n1 [Compound I-1-179]  2.13
58. CS(=O)(=O)c1ccccc1-n1ccc(NC(=O)c2ccccc2I)n1 [Compound I-1-184]  2.10
59. Cc1cc(C(=O)Nc2ccn(-c3c(F)cccc3F)n2)n(C)n1 [Compound I-1-232]  2.10
60. O=C(Nc1ccn(-c2nccnc2F)n1)c1ccccc1Br [Compound I-1-175]  2.09
61. Cc1c([N+](=O)[O-])c(C(=O)Nc2ccn(-c3c(F)cccc3F)n2)nn1C [Compound I-1-234]  2.03
62. CS(=O)(=O)c1ccccc1-n1ccc(NC(=O)c2cccnc2C(F)(F)F)n1 [Compound I-1-180]  2.00
63. CS(=O)(=O)c1ccccc1-n1ccc(NC(=O)c2ccccc2Br)n1 [Compound I-1-182]  2.00
64. O=C(Nc1ccn(-c2nccnc2F)n1)c1c(F)cccc1F [Compound I-1-177]  1.94
65. Cn1ncnc1C(=O)Nc1ccn(-c2c(F)cccc2F)n1 [Compound I-1-236]  1.93
66. Cn1cc([N+](=O)[O-])c(C(=O)Nc2ccn(-c3c(F)cccc3F)n2)n1 [Compound I-1-241]  1.90
67. CS(=O)(=O)c1ccccc1-n1ccc(NC(=O)c2c(F)cccc2F)n1 [Compound I-1-181]  1.86
68. Cn1cnc(C(=O)Nc2ccn(-c3c(F)cccc3F)n2)c1[N+](=O)[O-] [Compound I-1-242]  1.81
69. O=C(Nc1ccn(-c2c(F)cccc2F)n1)c1ccc[n+]([O-])c1C(F)(F)F [Compound I-1-243]  1.80
70. O=C(Nc1ccn(-c2nccnc2F)n1)c1ncccc1C(F)(F)F [Compound I-1-178]  1.77
